Values quoted from earlier work, collected in patent publication US11559486B2, “Ready-to-use formulation for Vincristine Sulfate Liposome Injection” (Spectrum Pharmaceuticals, Inc., priority 2015, dated 2023).

Conditions: 0.45% aqueous sodium chloride and Ringers admixtures at 25° C. to 37° C.

Structure (SMILES)	degradation in chloride-containing admixtures
COc1cccc2c1C(=O)c1c(O)c3c(c(O)c1C2=O)C[C@@](O)(C(=O)CO)C[C@@H]3O[C@H]1C[C@H](N)[C@H](O)[C@H](C)O1 [Doxorubicin]	degrade rapidly
CC[C@]1(O)C[C@H]2CN(CCc3c([nH]c4ccccc34)[C@@](C(=O)OC)(c3cc4c(cc3OC)N(C=O)[C@H]3[C@@](O)(C(=O)OC)[C@H](OC(C)=O)[C@]5(CC)C=CCN6CC[C@]43[C@@H]65)C2)C1 [vincristine, (3aR,3a^1R,4R,5S,5aR,10bR)-methyl-4-acetoxy-3a-ethyl-9-((5S,7S,9S)-5-ethyl-5-hydroxy-9-(methoxycarbonyl)-2,4,5,6,7,8,9,10-octahydro-1H-3,7-methano[1]azacycloundecino[5,4-b]indol-9-yl)-6-formyl-5-hydroxy-8-methoxy-3a,3a1,4,5,5a,6,11,12-octahydro-1H-indolizino[8,1-cd]carbazole-5-carboxylate]	degrade rapidly
